From publication PMC9030254, “Target Hopping from Protein Kinases to PXR: Identification of Small-Molecule Protein Kinase Inhibitors as Selective Modulators of Pregnane X Receptor from TüKIC Library” (Cells, 2022)

Legend:
Assay in all cases: Kinase profiling
Assay type in all cases: biochemical
[1] = target: T1, CDK6/CycD3 (Homo sapiens, UniProt Q00534)
T1 construct: purchased ProQinase (Freiburg, Germany)
Method: (§1) The analysis was performed by ProQinase (Freiburg, Germany).

[2] = target: T2, NEK4 (Homo sapiens, UniProt P51957)
T2 construct: purchased ProQinase (Freiburg, Germany)
T2 sequence (P51957 whole entry): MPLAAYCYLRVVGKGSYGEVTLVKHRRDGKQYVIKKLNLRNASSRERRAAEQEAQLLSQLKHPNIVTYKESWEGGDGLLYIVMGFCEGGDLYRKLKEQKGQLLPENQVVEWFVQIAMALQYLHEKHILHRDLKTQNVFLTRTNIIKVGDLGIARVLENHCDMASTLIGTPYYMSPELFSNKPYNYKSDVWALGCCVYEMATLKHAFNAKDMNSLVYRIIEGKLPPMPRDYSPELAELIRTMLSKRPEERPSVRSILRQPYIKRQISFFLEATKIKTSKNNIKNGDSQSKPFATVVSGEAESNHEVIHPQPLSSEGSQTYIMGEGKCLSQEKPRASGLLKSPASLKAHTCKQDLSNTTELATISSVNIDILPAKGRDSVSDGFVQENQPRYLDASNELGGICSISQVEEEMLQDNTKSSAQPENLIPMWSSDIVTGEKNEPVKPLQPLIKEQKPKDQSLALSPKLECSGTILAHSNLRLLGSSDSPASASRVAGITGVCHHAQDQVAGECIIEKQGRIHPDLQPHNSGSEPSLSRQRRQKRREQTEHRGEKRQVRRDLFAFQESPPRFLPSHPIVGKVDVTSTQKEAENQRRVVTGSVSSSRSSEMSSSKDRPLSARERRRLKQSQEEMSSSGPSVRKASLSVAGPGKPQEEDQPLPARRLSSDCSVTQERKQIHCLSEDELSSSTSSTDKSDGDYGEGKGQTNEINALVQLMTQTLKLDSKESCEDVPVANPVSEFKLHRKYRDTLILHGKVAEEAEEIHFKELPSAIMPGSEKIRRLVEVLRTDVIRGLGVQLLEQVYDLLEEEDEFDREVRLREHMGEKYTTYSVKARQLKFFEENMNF
Method: as §1

[3] = target: T3, MINK1 (Homo sapiens, UniProt Q8N4C8)
T3 construct: purchased ProQinase (Freiburg, Germany)
T3 sequence (Q8N4C8 whole entry): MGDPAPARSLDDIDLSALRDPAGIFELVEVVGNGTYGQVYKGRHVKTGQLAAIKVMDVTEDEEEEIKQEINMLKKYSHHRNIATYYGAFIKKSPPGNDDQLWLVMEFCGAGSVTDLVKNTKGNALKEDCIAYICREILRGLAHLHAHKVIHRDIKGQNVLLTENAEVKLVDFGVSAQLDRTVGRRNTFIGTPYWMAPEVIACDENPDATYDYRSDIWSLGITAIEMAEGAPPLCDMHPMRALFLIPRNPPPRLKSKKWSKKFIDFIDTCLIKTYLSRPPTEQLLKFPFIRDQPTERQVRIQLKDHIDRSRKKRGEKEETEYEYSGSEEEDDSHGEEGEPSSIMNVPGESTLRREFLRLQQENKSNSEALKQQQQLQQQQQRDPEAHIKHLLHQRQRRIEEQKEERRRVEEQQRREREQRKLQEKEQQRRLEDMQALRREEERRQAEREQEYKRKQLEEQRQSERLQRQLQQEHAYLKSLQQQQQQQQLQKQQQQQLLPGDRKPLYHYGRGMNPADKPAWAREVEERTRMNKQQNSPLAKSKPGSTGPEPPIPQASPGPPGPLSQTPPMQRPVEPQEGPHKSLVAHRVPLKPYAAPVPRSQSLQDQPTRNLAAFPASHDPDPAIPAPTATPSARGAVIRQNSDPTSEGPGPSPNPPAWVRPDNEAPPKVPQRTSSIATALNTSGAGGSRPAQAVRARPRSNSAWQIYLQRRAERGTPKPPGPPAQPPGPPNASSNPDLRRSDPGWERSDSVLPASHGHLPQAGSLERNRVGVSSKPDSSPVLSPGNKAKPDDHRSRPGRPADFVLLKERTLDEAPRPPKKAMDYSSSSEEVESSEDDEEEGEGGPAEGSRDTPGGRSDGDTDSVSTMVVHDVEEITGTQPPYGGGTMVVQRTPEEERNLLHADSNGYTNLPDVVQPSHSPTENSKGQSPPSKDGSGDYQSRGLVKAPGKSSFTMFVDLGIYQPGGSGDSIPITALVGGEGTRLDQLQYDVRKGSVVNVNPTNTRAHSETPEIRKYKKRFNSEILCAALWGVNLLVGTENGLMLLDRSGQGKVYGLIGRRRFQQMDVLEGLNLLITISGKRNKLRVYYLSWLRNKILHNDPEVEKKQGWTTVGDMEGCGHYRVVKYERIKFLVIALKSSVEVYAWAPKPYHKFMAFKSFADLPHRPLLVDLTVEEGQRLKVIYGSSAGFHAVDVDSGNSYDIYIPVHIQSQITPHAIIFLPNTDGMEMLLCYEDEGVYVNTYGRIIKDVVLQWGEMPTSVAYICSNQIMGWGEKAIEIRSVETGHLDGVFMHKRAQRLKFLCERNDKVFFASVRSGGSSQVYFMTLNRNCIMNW
Method: as §1

[4] = target: T4, CDK13/CycK (Homo sapiens, UniProt Q14004)
T4 construct: purchased ProQinase (Freiburg, Germany)
Method: as §1

[5] = target: T5, HIPK1 (Homo sapiens, UniProt Q86Z02)
T5 construct: purchased ProQinase (Freiburg, Germany)
T5 sequence (Q86Z02 whole entry): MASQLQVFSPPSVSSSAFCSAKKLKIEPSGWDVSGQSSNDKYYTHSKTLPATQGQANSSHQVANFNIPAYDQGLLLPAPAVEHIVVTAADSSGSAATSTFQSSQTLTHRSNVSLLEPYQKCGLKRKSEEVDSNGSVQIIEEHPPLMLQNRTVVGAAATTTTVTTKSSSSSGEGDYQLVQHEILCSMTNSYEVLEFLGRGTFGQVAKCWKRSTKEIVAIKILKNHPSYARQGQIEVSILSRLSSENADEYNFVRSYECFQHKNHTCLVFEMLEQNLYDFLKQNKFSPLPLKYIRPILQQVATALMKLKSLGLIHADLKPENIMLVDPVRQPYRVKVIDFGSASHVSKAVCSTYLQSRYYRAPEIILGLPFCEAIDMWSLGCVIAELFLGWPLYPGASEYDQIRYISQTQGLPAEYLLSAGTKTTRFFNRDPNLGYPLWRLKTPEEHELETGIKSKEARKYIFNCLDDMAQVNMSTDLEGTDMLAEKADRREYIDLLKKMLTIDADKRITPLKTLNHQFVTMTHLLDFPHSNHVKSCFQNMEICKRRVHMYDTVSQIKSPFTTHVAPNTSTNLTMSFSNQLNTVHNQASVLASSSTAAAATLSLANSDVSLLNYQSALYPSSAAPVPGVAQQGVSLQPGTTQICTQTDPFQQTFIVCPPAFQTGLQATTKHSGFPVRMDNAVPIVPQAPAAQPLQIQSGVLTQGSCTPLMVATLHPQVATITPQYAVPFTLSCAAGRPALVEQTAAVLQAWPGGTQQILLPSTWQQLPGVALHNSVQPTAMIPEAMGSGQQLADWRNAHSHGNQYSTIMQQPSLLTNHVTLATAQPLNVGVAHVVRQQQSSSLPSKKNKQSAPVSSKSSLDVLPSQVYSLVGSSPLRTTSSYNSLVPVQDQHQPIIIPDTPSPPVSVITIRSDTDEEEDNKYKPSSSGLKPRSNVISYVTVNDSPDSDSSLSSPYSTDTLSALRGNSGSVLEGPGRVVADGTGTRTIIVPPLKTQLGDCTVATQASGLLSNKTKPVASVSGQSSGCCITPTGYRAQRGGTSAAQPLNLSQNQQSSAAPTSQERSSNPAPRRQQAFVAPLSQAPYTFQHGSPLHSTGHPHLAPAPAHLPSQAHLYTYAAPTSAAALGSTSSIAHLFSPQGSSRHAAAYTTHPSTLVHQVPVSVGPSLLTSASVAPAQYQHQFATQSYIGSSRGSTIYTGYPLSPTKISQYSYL
Method: as §1

[6] = target: T6, GRK7 (Homo sapiens, UniProt Q8WTQ7)
T6 construct: purchased ProQinase (Freiburg, Germany)
T6 sequence (Q8WTQ7 1-553): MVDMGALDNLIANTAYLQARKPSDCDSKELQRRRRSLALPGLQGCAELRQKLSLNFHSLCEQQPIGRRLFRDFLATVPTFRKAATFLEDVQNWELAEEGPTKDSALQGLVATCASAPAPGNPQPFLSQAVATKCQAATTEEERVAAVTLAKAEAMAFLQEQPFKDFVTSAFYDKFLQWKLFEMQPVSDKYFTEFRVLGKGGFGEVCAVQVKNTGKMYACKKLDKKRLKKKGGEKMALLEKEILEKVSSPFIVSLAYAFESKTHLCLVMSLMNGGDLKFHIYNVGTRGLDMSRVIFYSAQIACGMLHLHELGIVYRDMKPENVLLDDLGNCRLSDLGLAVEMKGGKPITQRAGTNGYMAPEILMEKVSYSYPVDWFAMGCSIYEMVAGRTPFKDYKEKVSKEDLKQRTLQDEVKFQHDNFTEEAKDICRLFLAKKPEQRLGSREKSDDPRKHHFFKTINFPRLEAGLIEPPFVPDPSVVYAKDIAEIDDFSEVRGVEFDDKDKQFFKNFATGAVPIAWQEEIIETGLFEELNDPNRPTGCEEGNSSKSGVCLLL
Method: as §1

[7] = target: T7, EPHB4 (Homo sapiens, UniProt P54760)
T7 construct: purchased ProQinase (Freiburg, Germany)
T7 sequence (P54760 16-987): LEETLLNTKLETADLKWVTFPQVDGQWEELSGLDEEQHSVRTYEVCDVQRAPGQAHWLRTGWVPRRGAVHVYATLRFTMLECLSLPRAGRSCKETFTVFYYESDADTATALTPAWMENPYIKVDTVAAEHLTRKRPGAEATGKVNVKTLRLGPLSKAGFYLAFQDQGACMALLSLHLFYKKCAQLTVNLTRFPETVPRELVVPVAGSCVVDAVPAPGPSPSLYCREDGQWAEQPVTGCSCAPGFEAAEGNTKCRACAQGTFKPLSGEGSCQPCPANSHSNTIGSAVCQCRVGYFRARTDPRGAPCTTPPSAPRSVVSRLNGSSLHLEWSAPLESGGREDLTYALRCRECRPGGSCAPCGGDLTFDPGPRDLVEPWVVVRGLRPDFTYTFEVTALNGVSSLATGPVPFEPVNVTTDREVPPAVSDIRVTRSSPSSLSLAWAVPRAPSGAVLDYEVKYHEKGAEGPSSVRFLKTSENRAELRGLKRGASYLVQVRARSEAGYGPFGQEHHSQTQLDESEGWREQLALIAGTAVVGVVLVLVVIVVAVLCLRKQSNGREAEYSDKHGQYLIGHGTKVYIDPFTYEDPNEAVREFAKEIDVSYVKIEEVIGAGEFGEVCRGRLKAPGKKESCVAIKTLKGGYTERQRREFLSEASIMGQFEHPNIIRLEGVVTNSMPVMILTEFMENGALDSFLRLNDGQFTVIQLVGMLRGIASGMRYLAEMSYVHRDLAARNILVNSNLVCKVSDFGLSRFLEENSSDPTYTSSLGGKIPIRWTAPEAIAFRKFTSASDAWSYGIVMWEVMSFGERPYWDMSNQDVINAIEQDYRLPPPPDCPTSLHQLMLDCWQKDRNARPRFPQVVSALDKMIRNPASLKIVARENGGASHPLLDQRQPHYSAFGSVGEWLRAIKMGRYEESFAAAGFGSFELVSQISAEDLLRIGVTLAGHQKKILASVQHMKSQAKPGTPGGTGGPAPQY
Method: as §1

[8] = target: T8, CDK6/CycD1 (Homo sapiens, UniProt Q00534)
T8 construct: purchased ProQinase (Freiburg, Germany)
T8 sequence (Q00534 whole entry): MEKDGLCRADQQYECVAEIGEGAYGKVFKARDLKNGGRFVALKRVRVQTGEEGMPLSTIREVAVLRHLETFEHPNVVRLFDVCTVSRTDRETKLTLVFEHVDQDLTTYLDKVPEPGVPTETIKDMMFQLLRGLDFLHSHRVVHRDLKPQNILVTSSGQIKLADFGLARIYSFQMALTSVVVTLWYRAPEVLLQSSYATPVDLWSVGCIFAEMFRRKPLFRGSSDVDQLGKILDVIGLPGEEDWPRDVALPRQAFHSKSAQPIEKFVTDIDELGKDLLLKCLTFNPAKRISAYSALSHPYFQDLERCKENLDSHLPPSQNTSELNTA
T8 sequence (P24385 whole entry partner): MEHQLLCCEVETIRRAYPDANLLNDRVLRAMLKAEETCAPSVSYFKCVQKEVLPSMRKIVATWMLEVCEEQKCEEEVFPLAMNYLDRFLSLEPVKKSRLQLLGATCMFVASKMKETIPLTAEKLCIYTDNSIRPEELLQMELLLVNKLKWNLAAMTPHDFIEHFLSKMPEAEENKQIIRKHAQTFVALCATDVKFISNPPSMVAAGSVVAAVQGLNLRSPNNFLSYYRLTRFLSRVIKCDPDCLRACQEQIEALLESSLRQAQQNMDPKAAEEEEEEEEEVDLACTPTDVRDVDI
Method: as §1

[9] = target: T9, TLK1 (Homo sapiens, UniProt Q9UKI8)
T9 construct: purchased ProQinase (Freiburg, Germany)
T9 sequence (Q9UKI8 1-766): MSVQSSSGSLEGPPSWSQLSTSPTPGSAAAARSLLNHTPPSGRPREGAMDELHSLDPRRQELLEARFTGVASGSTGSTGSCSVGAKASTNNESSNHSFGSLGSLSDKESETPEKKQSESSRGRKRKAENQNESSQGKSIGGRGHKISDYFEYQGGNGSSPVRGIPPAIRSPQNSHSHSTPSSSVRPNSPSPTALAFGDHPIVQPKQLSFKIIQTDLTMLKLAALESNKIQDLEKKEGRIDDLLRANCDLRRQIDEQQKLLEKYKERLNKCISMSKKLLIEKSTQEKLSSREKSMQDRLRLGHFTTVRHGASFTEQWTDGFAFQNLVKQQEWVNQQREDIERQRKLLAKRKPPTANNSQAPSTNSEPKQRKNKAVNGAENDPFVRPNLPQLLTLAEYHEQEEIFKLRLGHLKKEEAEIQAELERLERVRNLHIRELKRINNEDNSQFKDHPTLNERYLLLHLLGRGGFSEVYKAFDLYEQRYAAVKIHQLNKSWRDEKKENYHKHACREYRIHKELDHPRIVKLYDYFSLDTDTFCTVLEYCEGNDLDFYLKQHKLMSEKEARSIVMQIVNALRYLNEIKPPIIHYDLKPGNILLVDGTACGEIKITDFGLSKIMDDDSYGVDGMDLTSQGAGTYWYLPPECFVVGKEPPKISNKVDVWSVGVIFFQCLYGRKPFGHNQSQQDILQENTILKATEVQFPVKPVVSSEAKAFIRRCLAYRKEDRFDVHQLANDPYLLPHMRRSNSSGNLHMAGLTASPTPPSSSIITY
Method: as §1

[10] = target: T10, CAMKK2 (Homo sapiens, UniProt Q96RR4)
T10 construct: purchased ProQinase (Freiburg, Germany)
T10 sequence (Q96RR4 whole entry): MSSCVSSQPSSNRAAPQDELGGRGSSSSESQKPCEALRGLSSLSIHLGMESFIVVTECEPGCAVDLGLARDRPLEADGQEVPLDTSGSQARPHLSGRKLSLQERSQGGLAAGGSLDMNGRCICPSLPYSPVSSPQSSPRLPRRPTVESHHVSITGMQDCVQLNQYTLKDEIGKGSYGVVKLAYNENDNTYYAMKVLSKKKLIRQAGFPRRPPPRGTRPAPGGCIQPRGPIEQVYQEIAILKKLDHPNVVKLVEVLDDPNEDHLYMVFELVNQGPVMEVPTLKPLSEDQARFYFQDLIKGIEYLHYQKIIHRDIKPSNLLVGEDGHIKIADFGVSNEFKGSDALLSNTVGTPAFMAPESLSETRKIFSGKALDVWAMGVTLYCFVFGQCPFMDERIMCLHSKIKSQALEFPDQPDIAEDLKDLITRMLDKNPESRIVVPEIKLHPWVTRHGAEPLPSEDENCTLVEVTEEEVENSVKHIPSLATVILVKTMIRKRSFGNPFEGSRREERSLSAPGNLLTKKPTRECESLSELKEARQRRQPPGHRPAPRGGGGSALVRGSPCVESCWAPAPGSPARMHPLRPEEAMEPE
Method: as §1

[11] = target: T11, CDK7/CycH/MAT1 (Homo sapiens, UniProt P50613)
T11 construct: purchased ProQinase (Freiburg, Germany)
Method: as §1

T1 sequence (Q00534 whole entry): as the sequence (Q00534 whole entry) above
T1 sequence (P30281 whole entry partner): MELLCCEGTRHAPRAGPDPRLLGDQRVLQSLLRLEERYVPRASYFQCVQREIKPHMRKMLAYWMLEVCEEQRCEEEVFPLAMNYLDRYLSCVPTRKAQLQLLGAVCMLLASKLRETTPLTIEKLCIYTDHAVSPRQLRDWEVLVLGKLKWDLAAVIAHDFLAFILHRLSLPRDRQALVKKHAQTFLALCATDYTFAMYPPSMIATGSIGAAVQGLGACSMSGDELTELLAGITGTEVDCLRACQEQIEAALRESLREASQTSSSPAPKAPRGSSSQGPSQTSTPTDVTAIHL

Row | SMILES | Residual activity ([1]; 1.0E-05 M) | Residual activity ([1]; 1.0E-06 M) | Residual activity ([2]; 1.0E-05 M) | Residual activity ([2]; 1.0E-06 M) | Residual activity ([3]; 1.0E-05 M) | Residual activity ([3]; 1.0E-06 M) | Residual activity ([4]; 1.0E-05 M) | Residual activity ([4]; 1.0E-06 M) | Residual activity ([5]; 1.0E-05 M) | Residual activity ([5]; 1.0E-06 M) | Residual activity ([6]; 1.0E-05 M) | Residual activity ([6]; 1.0E-06 M) | Residual activity ([7]; 1.0E-05 M) | Residual activity ([7]; 1.0E-06 M) | Residual activity ([8]; 1.0E-05 M) | Residual activity ([8]; 1.0E-06 M) | Residual activity ([9]; 1.0E-05 M) | Residual activity ([9]; 1.0E-06 M) | Residual activity ([10]; 1.0E-05 M) | Residual activity ([10]; 1.0E-06 M) | further results
1 | O=C(Cc1ccccc1)Nc1ccc(F)c(Nc2ccc3c(c2)CCCCC3=O)c1 [Compound 100] | 92 % of control | 90 % of control | 81 % of control | 102 % of control | 73 % of control | 89 % of control | 84 % of control | 88 % of control | 91 % of control | 100 % of control | 123 % of control | 121 % of control | 74 % of control | 99 % of control | 89 % of control | 93 % of control | 131 % of control | 125 % of control | 95 % of control | 97 % of control | Residual activity ([11]; 1.0E-05 M): 83 % of control; Residual activity ([11]; 1.0E-06 M): 94 % of control
2 | O=C(Nc1ccc(F)c(Nc2ccc3c(c2)CCCCC3=O)c1)c1cccc(F)c1 [Compound 109] | 93 % of control | 87 % of control | 94 % of control | 98 % of control | 57 % of control | 86 % of control | 92 % of control | 88 % of control | 93 % of control | 90 % of control | 116 % of control | 108 % of control | 82 % of control | 100 % of control | 90 % of control | 84 % of control | 114 % of control | 103 % of control | 81 % of control | 84 % of control | Residual activity ([11]; 1.0E-05 M): 92 % of control; Residual activity ([11]; 1.0E-06 M): 89 % of control
